Source: the supplement of paper PMC9663587

compound: CN(C)C(=O)c1cc2cnc(Nc3ccc(N4CCNCC4)cn3)nc2n1C1CCCC1 [LEE011/Ribociclib]; assay: increase in dead-cell fraction, 72 h; higher = more death; conditions: 0.001 µM;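 note: breast cancer cell lines in 384-well plates, stained with Hoechst plus LIVE/DEAD far red dye and imaged, cells above an LDR intensity threshold counted dead, Hoechst-negative corpses included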

Cell Line	increase in dead-cell fraction
HCC1569	0.0294
HCC1806	0.0002
HCC1937	-0.0088
HCC1954	0.0048
HS578T	0.0899

same assay, conditions: 0.003162 µM

Cell Line	increase in dead-cell fraction
HCC1569	0.0001
HCC1806	-0.0001
HCC1937	-0.0054
HCC1954	0.0062
HS578T	0.0789

same assay, conditions: 0.01 µM

Cell Line	increase in dead-cell fraction
HCC1569	-0.0082
HCC1806	0.0014
HCC1937	-0.0115
HCC1954	-0.0065
HS578T	0.105

same assay, conditions: 0.03162 µM

Cell Line	increase in dead-cell fraction
HCC1569	0.0025
HCC1806	-0.0047
HCC1937	-0.0122
HCC1954	0.0067
HS578T	0.0986

same assay, conditions: 0.1 µM

Cell Line	increase in dead-cell fraction
HCC1569	-0.0135
HCC1806	0.0015
HCC1937	-0.0012
HCC1954	0.006
HS578T	0.196

same assay, conditions: 0.3162 µM

Cell Line	increase in dead-cell fraction
HCC1569	-0.0045
HCC1806	0.0032
HCC1937	-0.0035
HCC1954	0.0179
HS578T	0.2

same assay, conditions: 1 µM

Cell Line	increase in dead-cell fraction
HCC1569	-0.0042
HCC1806	0.0064
HCC1937	-0.0021
HCC1954	0.0102
HS578T	0.245

same assay, conditions: 3.162 µM

Cell Line	increase in dead-cell fraction
HCC1569	-0.0048
HCC1806	0.0046
HCC1937	-0.0077
HCC1954	0.0144
HS578T	0.248

same assay, conditions: 10 µM

Cell Line	increase in dead-cell fraction
HCC1569	-0.0015
HCC1806	0.0171
HCC1937	0.0003
HCC1954	0.0111
HS578T	0.243

compound: CN(C)C/C=C/C(=O)Nc1ccc(C(=O)N2CCC[C@@H](Nc3ncc(Cl)c(-c4c[nH]c5ccccc45)n3)C2)cc1 [THZ531]; assay: as above; conditions: 0.0001 µM

Cell Line	increase in dead-cell fraction
HCC1569	0.0019
HCC1806	0.0006
HCC1937	0.0017
HCC1954	0.0002
HS578T	0.0179

same assay, conditions: 0.0003162 µM

Cell Line	increase in dead-cell fraction
HCC1569	-0.0034
HCC1806	0.001
HCC1937	0.0017
HCC1954	0.0055
HS578T	0.0236

same assay, conditions: 0.001 µM

Cell Line	increase in dead-cell fraction
HCC1569	-0.0007
HCC1806	0.0004
HCC1937	0.0043
HCC1954	0.0013
HS578T	-0.0057

same assay, conditions: 0.003162 µM

Cell Line	increase in dead-cell fraction
HCC1569	0.0032
HCC1806	-0.0016
HCC1937	-0.0008
HCC1954	0.0058
HS578T	0.0346

same assay, conditions: 0.01 µM

Cell Line	increase in dead-cell fraction
HCC1569	0.0103
HCC1806	-0.0015
HCC1937	-0.0084
HCC1954	0.0048
HS578T	-0.004

same assay, conditions: 0.03162 µM

Cell Line	increase in dead-cell fraction
HCC1569	0.0155
HCC1806	0.0016
HCC1937	-0.0082
HCC1954	0.004
HS578T	0.0086

same assay, conditions: 0.1 µM

Cell Line	increase in dead-cell fraction
HCC1569	0.161
HCC1806	0.0014
HCC1937	0.0051
HCC1954	0.0127
HS578T	0.182

same assay, conditions: 0.3162 µM

Cell Line	increase in dead-cell fraction
HCC1569	0.273
HCC1806	0.0179
HCC1937	0.0511
HCC1954	0.0525
HS578T	0.2

same assay, conditions: 1 µM

Cell Line	increase in dead-cell fraction
HCC1569	0.0822
HCC1806	0.586
HCC1937	0.0969
HCC1954	0.42
HS578T	0.283

compound: T1, CN(C)C/C=C/C(=O)Nc1ccc(C(=O)Nc2cccc(Nc3ncc(Cl)c(-c4c[nH]c5ccccc45)n3)c2)cc1 [THZ1]; assay: as above; conditions: 0.0001 µM

Cell Line	increase in dead-cell fraction
HCC1569	-0.004
HCC1806	-0.0025
HCC1937	-0.0003
HCC1954	-0.0011
HS578T	-0.0022

same assay, conditions: 0.0003162 µM

Cell Line	increase in dead-cell fraction
HCC1569	-0.0128
HCC1806	-0.0038
HCC1937	-0.0027
HCC1954	0.0018
HS578T	0.0144

same assay, conditions: 0.001 µM

Cell Line	increase in dead-cell fraction
HCC1569	0.0063
HCC1806	-0.0025
HCC1937	-0.0105
HCC1954	0.0068
HS578T	0.0176

same assay, conditions: 0.003162 µM

Cell Line	increase in dead-cell fraction
HCC1569	-0.0051
HCC1806	-0.0009
HCC1937	-0.0045
HCC1954	-0.0006
HS578T	-0.0036

same assay, conditions: 0.01 µM

Cell Line	increase in dead-cell fraction
HCC1569	0.0163
HCC1806	-0.0024
HCC1937	-0.0053
HCC1954	-0.0054
HS578T	0

same assay, conditions: 0.03162 µM

Cell Line	increase in dead-cell fraction
HCC1569	0.0231
HCC1806	0.0112
HCC1937	-0.0002
HCC1954	0.0087
HS578T	0.11

same assay, conditions: 0.1 µM

Cell Line	increase in dead-cell fraction
HCC1569	0.208
HCC1806	0.0478
HCC1937	0.06
HCC1954	0.0688
HS578T	0.174

same assay, conditions: 0.3162 µM

Cell Line	increase in dead-cell fraction
HCC1569	0.147
HCC1806	0.271
HCC1937	0.0438
HCC1954	0.153
HS578T	0.216

same assay, conditions: 1 µM

Cell Line	increase in dead-cell fraction
HCC1569	0.166
HCC1806	0.766
HCC1937	0.104
HCC1954	0.596
HS578T	0.22

compound: CN1CC[C@H](c2c(O)cc(O)c3c(=O)cc(-c4ccccc4Cl)oc23)[C@H](O)C1 [Flavopiridol]; assay: as above; conditions: 0.0001 µM

Cell Line	increase in dead-cell fraction
HCC1569	-0.0248
HCC1806	-0.0011
HCC1937	-0.0009
HCC1954	0.0057
HS578T	0.0048

same assay, conditions: 0.0003162 µM

Cell Line	increase in dead-cell fraction
HCC1569	0.001
HCC1806	-0.0029
HCC1937	-0.0013
HCC1954	0.0003
HS578T	-0.0091

same assay, conditions: 0.001 µM

Cell Line	increase in dead-cell fraction
HCC1569	0.0101
HCC1806	0.003
HCC1937	-0.0022
HCC1954	0.0047
HS578T	0.0178

same assay, conditions: 0.003162 µM

Cell Line	increase in dead-cell fraction
HCC1569	0.0075
HCC1806	-0.001
HCC1937	-0.0083
HCC1954	0.0096
HS578T	-0.0177

same assay, conditions: 0.01 µM

Cell Line	increase in dead-cell fraction
HCC1569	-0.0095
HCC1806	0.0029
HCC1937	0.0073
HCC1954	0.0025
HS578T	0.0333

same assay, conditions: 0.03162 µM

Cell Line	increase in dead-cell fraction
HCC1569	-0.0064
HCC1806	0.005
HCC1937	0
HCC1954	0.0079
HS578T	-0.0109

same assay, conditions: 0.1 µM

Cell Line	increase in dead-cell fraction
HCC1569	0.0067
HCC1806	0.019
HCC1937	0.0006
HCC1954	0.03
HS578T	0.0094

same assay, conditions: 0.3162 µM

Cell Line	increase in dead-cell fraction
HCC1569	0.0986
HCC1806	0.0572
HCC1937	0.0316
HCC1954	0.143
HS578T	0.0312

same assay, conditions: 1 µM

Cell Line	increase in dead-cell fraction
HCC1569	0.102
HCC1806	0.71
HCC1937	0.0846
HCC1954	0.733
HS578T	0.288

compound: CCOc1cc2ncc(C#N)c(Nc3ccc(OCc4ccccn4)c(Cl)c3)c2cc1NC(=O)/C=C/CN(C)C [Neratinib/HKI272]; assay: GR value, 72 h; higher = faster growth (1 = untreated, <0 = killing); conditions: 0.0003162 µM;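 note: breast cancer and non-malignant breast epithelial lines, nine half-log doses, viable cells counted by Hoechst and LIVE/DEAD dye imaging versus time-zero plates and DMSO controls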

Cell Line	GR value
HCC1569	0.95 GR
HCC1806	1.08 GR
HCC1937	0.987 GR
HCC1954	1.04 GR
HS578T	1.06 GR

same assay, conditions: 0.001 µM

Cell Line	GR value
HCC1569	0.948 GR
HCC1806	1.06 GR
HCC1937	1.03 GR
HCC1954	1.05 GR
HS578T	1 GR

same assay, conditions: 0.003162 µM

Cell Line	GR value
HCC1569	0.863 GR
HCC1806	1.04 GR
HCC1937	0.951 GR
HCC1954	0.938 GR
HS578T	1.05 GR

same assay, conditions: 0.01 µM

Cell Line	GR value
HCC1569	0.708 GR
HCC1806	0.99 GR
HCC1937	0.945 GR
HCC1954	0.859 GR
HS578T	0.98 GR

same assay, conditions: 0.03162 µM

Cell Line	GR value
HCC1569	0.612 GR
HCC1806	0.881 GR
HCC1937	0.897 GR
HCC1954	0.533 GR
HS578T	1 GR

same assay, conditions: 0.1 µM

Cell Line	GR value
HCC1569	0.537 GR
HCC1806	0.811 GR
HCC1937	0.824 GR
HCC1954	0.389 GR
HS578T	0.888 GR

same assay, conditions: 0.3162 µM

Cell Line	GR value
HCC1569	0.363 GR
HCC1806	0.675 GR
HCC1937	0.735 GR
HCC1954	0.27 GR
HS578T	0.613 GR

same assay, conditions: 1 µM

Cell Line	GR value
HCC1569	0.225 GR
HCC1806	0.546 GR
HCC1937	0.633 GR
HCC1954	0.119 GR
HS578T	0.427 GR

same assay, conditions: 3.162 µM

Cell Line	GR value
HCC1569	0.124 GR
HCC1806	-0.0945 GR
HCC1937	0.295 GR
HCC1954	-0.0858 GR
HS578T	-0.155 GR

compound: T1, THZ1; assay: as above; conditions: 0.0001 µM

Cell Line	GR value
HCC1569	1.16 GR
HCC1806	1.08 GR
HCC1937	0.926 GR
HCC1954	1.03 GR
HS578T	0.977 GR

same assay, conditions: 0.0003162 µM

Cell Line	GR value
HCC1569	1.14 GR
HCC1806	1.04 GR
HCC1937	0.922 GR
HCC1954	0.958 GR
HS578T	1.03 GR

same assay, conditions: 0.001 µM

Cell Line	GR value
HCC1569	1.15 GR
HCC1806	1.04 GR
HCC1937	0.98 GR
HCC1954	1.01 GR
HS578T	0.99 GR

same assay, conditions: 0.003162 µM

Cell Line	GR value
HCC1569	1.42 GR
HCC1806	1 GR
HCC1937	1.05 GR
HCC1954	1 GR
HS578T	1.03 GR

same assay, conditions: 0.01 µM

Cell Line	GR value
HCC1569	0.908 GR
HCC1806	0.968 GR
HCC1937	1.14 GR
HCC1954	0.939 GR
HS578T	0.784 GR

same assay, conditions: 0.03162 µM

Cell Line	GR value
HCC1569	0.468 GR
HCC1806	0.739 GR
HCC1937	0.808 GR
HCC1954	0.85 GR
HS578T	0.125 GR

same assay, conditions: 0.1 µM

Cell Line	GR value
HCC1569	-0.112 GR
HCC1806	0.323 GR
HCC1937	0.104 GR
HCC1954	0.491 GR
HS578T	-0.199 GR

same assay, conditions: 0.3162 µM

Cell Line	GR value
HCC1569	-0.346 GR
HCC1806	-0.252 GR
HCC1937	-0.107 GR
HCC1954	-0.0278 GR
HS578T	-0.251 GR

same assay, conditions: 1 µM

Cell Line	GR value
HCC1569	-0.325 GR
HCC1806	-0.656 GR
HCC1937	-0.38 GR
HCC1954	-0.507 GR
HS578T	-0.371 GR
